Test results published in patent publication US20210207064A1, “COMPOUND FOR RESTORING CONTAMINATED SOIL OR CONTAMINATED WATER” (FNG RESEARCH CO., LTD., priority 2018, published 2021).

Key:
[1] = Heavy metal removal ability test in contaminated soil (ICP-MS), nickel; conditions: for Nickel (Ni) Adsorption amount: contaminated soil; for Nickel (Ni) Adsorption rate: relative to EDTA control
Procedure: (§1) (1) Preparation of Soil Contaminated with Heavy Metal
(§2) After collecting and pulverizing uncontaminated soil, fine particles obtained by using a mesh were mixed with the aqueous heavy metal solution to prepare soil samples contaminated with heavy metals.
(§3) Each 3 ml of the prepared aqueous solution was added to a soil sample contaminated with heavy metals and mixed for 5 minutes.
(§4) 50 ml of distilled water was added to the contaminated soil mixed with the aqueous solution for restoring soil, stirred for 20 minutes, and settled for 1 hour, and a supernatant was prepared as a sample solution.
(§5) The prepared sample solution was analyzed for the heavy metal component using an Inductively Coupled Plasma Mass Spectrometer (ICP-MS) (Xseries™ 2, Thermo Fisher Scientific, UK).
(§6) Adsorption rate of heavy metals (%)=(Adsorption amount of Embodiment/Adsorption amount of Control)×100 Equation 1

[2] = Heavy metal removal ability test in contaminated soil (ICP-MS), arsenic; conditions: for Arsenic (As) Adsorption amount: contaminated soil; for Arsenic (As) Adsorption rate: relative to EDTA control
Procedure: as §1, §2, §3, §4, §5, §6

[3] = Heavy metal removal ability test in contaminated soil around a factory (WAK-Me test kit); conditions: 1.0 wt % aqueous solution, colour comparison test kit
Procedure: The contaminated soil around the factory in the industrial complex was collected, pulverized, and meshed to prepare fine particles of soil samples.
Each 3 ml of aqueous solutions for restoring soil was added to soil samples and mixed for 5 minutes.

[4] = Formaldehyde (formalin) removing ability test (GC); conditions: 2.0% formaldehyde solution, 3 molar equivalents of compound, room temperature
[5] = system: human skin; experiment: Skin irritation test of active ingredient (patch method, CTFA guidelines); format: in vivo; conditions: 24 h patch; for Test result (number of subject) (+) / Test result (number of subject) (++) / Test result (number of subject) (±) / Test result (number of subject) (−): 20 people; for Test result (number of subject) (+): (+) apparent reddening; for Test result (number of subject) (++): (++) more reddened and swollen; for Test result (number of subject) (±): (±) slightly reddish; for Test result (number of subject) (−): (−) no erythema
Procedure: A filter paper disk was placed in an 8 mm diameter, 10 panels of pin chamber.
After 24 hours, the pin chamber was removed, and skin conditions were visually observed. The degree and grade for skin irritation were calculated according to the following Equation 2, and the results are shown in Table 4 below.
[Criteria for Skin Irritation]
(−): No erythema or particularly no symptoms; (±): slightly reddish than the periphery; (+): Apparent reddening than periphery; (++): More reddened and swollen than periphery.
[Grade for Skin Irritation]
Degree of irritation 0-0.1: Grade I (unstimulated);
Degree of irritation 0.11-0.3: Grade II (weakly stimulated);
Degree of irritation 0.31-0.5: Grade III (moderately stimulated);
Degree of irritation 0.51 or more: Grade IV (strongly stimulated)

[6] = Heavy metal removal ability test in contaminated soil (ICP-MS), cadmium; conditions: for Cadmium (Cd) Adsorption amount: contaminated soil; for Cadmium (Cd) Adsorption rate: relative to EDTA control
Procedure: as §1, §2, §3, §4, §5, §6

O=C(O)c1ccc(N(CCN(CCN(c2ccc(C(=O)O)o2)c2ccc(C(=O)O)o2)c2ccc(C(=O)O)o2)CCN(c2ccc(C(=O)O)o2)c2ccc(C(=O)O)o2)o1 [Embodiment 4, 5,5′,5″,5′″-(((ethane-1,2-diylbis((5-carboxyfuran-2-yl)azanediyl))bis(ethane-2,1-diyl))bis(azanetriyl))tetrakis(furan-2-carboxylic Acid)]
Nickel (Ni) Adsorption amount ([1]; content 0.5% aqueous solution): 91 ppm | Nickel (Ni) Adsorption rate ([1]; content 0.5%): 186% | Nickel (Ni) Adsorption amount ([1]; content 1.0% aqueous solution): 94 ppm | Nickel (Ni) Adsorption rate ([1]; content 1.0%): 192% | Nickel (Ni) Adsorption amount ([1]; content 2.0% aqueous solution): 104 ppm | Nickel (Ni) Adsorption rate ([1]; content 2.0%): 212% | Arsenic (As) Adsorption amount ([2]; content 0.5% aqueous solution): 53 ppm | Arsenic (As) Adsorption rate ([2]; content 0.5%): 212% | Arsenic (As) Adsorption amount ([2]; content 1.0% aqueous solution): 56 ppm | Arsenic (As) Adsorption rate ([2]; content 1.0%): 224% | Arsenic (As) Adsorption amount ([2]; content 2.0% aqueous solution): 56 ppm | Arsenic (As) Adsorption rate ([2]; content 2.0%): 224% | Total amount (Cu, Zn, Mn, Ni, Cd) [3]: ≤5 ppm | Formaldehyde GC Area, 30 min ([4]; after 30 min): 0.173 mAU*min | Formaldehyde GC Area, 180 min ([4]; after 180 min): 0 mAU*min | Formaldehyde GC Area, Initial ([4]; initial state): 0.305 mAU*min | Test result (number of subject) (+) ([5]; content 0.1 wt %): 0 | Test result (number of subject) (++) ([5]; content 0.1 wt %): 0 | Test result (number of subject) (±) ([5]; content 0.1 wt %): 0 | Test result (number of subject) (−) ([5]; content 0.1 wt %): 20 | Degree of irritation ([5]; content 0.1 wt %): 0 | Grade for skin irritation ([5]; content 0.1 wt %): I (Degree of irritation 0-0.1: Grade I (unstimulated)) | Test result (number of subject) (+) ([5]; content 0.5 wt %): 0 | Test result (number of subject) (++) ([5]; content 0.5 wt %): 0 | Test result (number of subject) (±) ([5]; content 0.5 wt %): 0 | Test result (number of subject) (−) ([5]; content 0.5 wt %): 20 | Degree of irritation ([5]; content 0.5 wt %): 0 | Grade for skin irritation ([5]; content 0.5 wt %): I (Degree of irritation 0-0.1: Grade I (unstimulated)) | Test result (number of subject) (+) ([5]; content 1.0 wt %): 0 | Test result (number of subject) (++) ([5]; content 1.0 wt %): 0 | Test result (number of subject) (±) ([5]; content 1.0 wt %): 1 | Test result (number of subject) (−) ([5]; content 1.0 wt %): 19 | Degree of irritation ([5]; content 1.0 wt %): 0.05 | Grade for skin irritation ([5]; content 1.0 wt %): I (Degree of irritation 0-0.1: Grade I (unstimulated)) | Cadmium (Cd) Adsorption amount ([6]; content 0.5% aqueous solution): 67 ppm | Cadmium (Cd) Adsorption rate ([6]; content 0.5%): 163% | Cadmium (Cd) Adsorption amount ([6]; content 1.0% aqueous solution): 74 ppm | Cadmium (Cd) Adsorption rate ([6]; content 1.0%): 180% | Cadmium (Cd) Adsorption amount ([6]; content 2.0% aqueous solution): 80 ppm | Cadmium (Cd) Adsorption rate ([6]; content 2.0%): 195%
